In US20230398130A1, “METHODS AND COMPOSITIONS FOR DIFFERENTIATING STEM CELLS” (Massachusetts Institute of Technology, priority 2020, published 2023):

Columns and labels:
[1] = test system: ISC-enriched organoids; assay: Primary screen, 384-well 2.5-D organoid differentiation (ENR+CD, 6 days): basal lysozyme secretion (LYZ.NS); format: cell-based, murine; details: for Dose.FC.LYZ.NS: FC vs plate median; for SSMD.LYZ.NS: strictly standardized mean difference
From the text: (§1) High-throughput screening.

[2] = test system: ISC-enriched organoids; assay: Primary screen, 384-well 2.5-D organoid differentiation (ENR+CD, 6 days): carbachol-induced lysozyme secretion (LYZ.S); format: cell-based, murine; details: for Dose.FC.LYZ.S: FC vs plate median; for Z.LYZ.S: standard z score; for SSMD.LYZ.S: strictly standardized mean difference
From the text: as §1

[3] = test system: ISC-enriched organoids; assay: Primary screen, 384-well 2.5-D organoid differentiation (ENR+CD, 6 days, Target Selective Inhibitor Library, vs whole-plate median): ATP (CellTiter-Glo 3D, CTG); details: for Dose.FC.CTG: FC vs plate median; for SSMD.CTG: strictly standardized mean difference
[4] = Dose 0.08 uM, standard z score of FC
[5] = Dose 0.40 uM, standard z score of FC
[6] = Dose 2.00 uM, standard z score of FC
[7] = Dose 10.00 uM, standard z score of FC
[8] = Dose 0.08 uM, primary screen, standard z score
[9] = Dose 0.40 uM, primary screen, standard z score
[10] = Dose 2.00 uM, primary screen, standard z score
[11] = Dose 10.00 uM, primary screen, standard z score
[12] = primary screen, 1st of the 4 dose lines of the treatment (dose not given)
[13] = primary screen, 2nd of the 4 dose lines of the treatment (dose not given)
[14] = primary screen, 3rd of the 4 dose lines of the treatment (dose not given)
[15] = primary screen, 4th of the 4 dose lines of the treatment (dose not given)
[16] = primary screen, dose 0.08 uM, ENR+CD 6 days
[17] = primary screen, dose 0.08 uM, standard z score of FC
[18] = primary screen, dose 0.40 uM, ENR+CD 6 days
[19] = primary screen, dose 0.40 uM, standard z score of FC
[20] = primary screen, dose 2.00 uM, ENR+CD 6 days
[21] = primary screen, dose 2.00 uM, standard z score of FC
[22] = primary screen, dose 10.00 uM, ENR+CD 6 days
[23] = primary screen, dose 10.00 uM, standard z score of FC

SMILES: C[C@]1(O)C[C@@H](c2nc(-c3ccc4ccc(-c5ccccc5)nc4c3)c3c(N)nccn32)C1 [OSI-906 (Linsitinib)]
- Dose.FC.LYZ.NS ([1]; Dose 0.08 uM, primary screen): 0.013 log 2 fold change
- Z.LYZ.NS [1, 4]: 0.110
- Dose.FC.LYZ.NS ([1]; Dose 0.40 uM, primary screen): −0.093 log 2 fold change
- Z.LYZ.NS [1, 5]: −0.806
- Dose.FC.LYZ.NS ([1]; Dose 2.00 uM, primary screen): −0.216 log 2 fold change
- Z.LYZ.NS [1, 6]: −1.882
- Dose.FC.LYZ.NS ([1]; Dose 10.00 uM, primary screen): −0.229 log 2 fold change
- Z.LYZ.NS [1, 7]: −1.996
- Dose.FC.LYZ.S ([2]; Dose 0.08 uM, primary screen): −0.026 log 2 fold change
- Dose.FC.LYZ.S ([2]; Dose 0.40 uM, primary screen): −0.119 log 2 fold change
- Dose.FC.LYZ.S ([2]; Dose 2.00 uM, primary screen): −0.288 log 2 fold change
- Dose.FC.LYZ.S ([2]; Dose 10.00 uM, primary screen): −0.328 log 2 fold change
- Dose.FC.CTG ([3]; Dose 0.08 uM, primary screen): −0.324 log 2 fold change
- Z.CTG [3, 4]: −0.775
- Dose.FC.CTG ([3]; Dose 0.40 uM, primary screen): −0.158 log 2 fold change
- Z.CTG [3, 5]: −0.377
- Dose.FC.CTG ([3]; Dose 2.00 uM, primary screen): −0.277 log 2 fold change
- Z.CTG [3, 6]: −0.661
- Dose.FC.CTG ([3]; Dose 10.00 uM, primary screen): −0.391 log 2 fold change
- Z.CTG [3, 7]: −0.934

SMILES: CC(C)(C)c1cc(C(C)(C)C)c(NC(=O)c2c[nH]c3ccccc3c2=O)cc1O [Ivacaftor (VX-770)]
- Dose.FC.LYZ.NS ([1]; Dose 0.08 uM, primary screen): 0.099 log 2 fold change
- Z.LYZ.NS [1, 8]: 0.864
- Dose.FC.LYZ.NS ([1]; Dose 0.40 uM, primary screen): 0.127 log 2 fold change
- Z.LYZ.NS [1, 9]: 1.109
- Dose.FC.LYZ.NS ([1]; Dose 2.00 uM, primary screen): 0.082 log 2 fold change
- Z.LYZ.NS [1, 10]: 0.717
- Dose.FC.LYZ.NS ([1]; Dose 10.00 uM, primary screen): −0.142 log 2 fold change
- Z.LYZ.NS [1, 11]: −1.240
- SSMD.LYZ.NS [1, 12]: 0.882
- SSMD.LYZ.NS [1, 13]: 0.825
- SSMD.LYZ.NS [1, 14]: 0.582
- SSMD.LYZ.NS [1, 15]: −1.167
- Dose.FC.LYZ.S ([2]; Dose 0.08 uM, primary screen): 0.132 log 2 fold change
- Dose.FC.LYZ.S ([2]; Dose 0.40 uM, primary screen): 0.189 log 2 fold change
- Dose.FC.LYZ.S ([2]; Dose 2.00 uM, primary screen): 0.019 log 2 fold change
- Dose.FC.LYZ.S ([2]; Dose 10.00 uM, primary screen): −0.253 log 2 fold change
- Z.LYZ.S [2, 12]: 0.853
- Z.LYZ.S [2, 13]: 1.220
- Z.LYZ.S [2, 14]: 0.124
- Z.LYZ.S [2, 15]: −1.636
- SSMD.LYZ.S [2, 12]: 0.705
- SSMD.LYZ.S [2, 13]: 1.209
- SSMD.LYZ.S [2, 14]: 0.148
- SSMD.LYZ.S [2, 15]: −1.350
- Dose.FC.CTG ([3]; Dose 0.08 uM, primary screen): 0.234 log 2 fold change
- Z.CTG [3, 8]: 0.558
- Dose.FC.CTG ([3]; Dose 0.40 uM, primary screen): 0.145 log 2 fold change
- Z.CTG [3, 9]: 0.347
- Dose.FC.CTG ([3]; Dose 2.00 uM, primary screen): −0.148 log 2 fold change
- Z.CTG [3, 10]: −0.354
- Dose.FC.CTG ([3]; Dose 10.00 uM, primary screen): −0.470 log 2 fold change
- Z.CTG [3, 11]: −1.123
- SSMD.CTG [3, 12]: 0.431
- SSMD.CTG [3, 13]: 0.280
- SSMD.CTG [3, 14]: −0.331
- SSMD.CTG [3, 15]: −1.317

SMILES: CCC(CC)CC1(C(=O)Nc2ccccc2SC(=O)C(C)C)CCCCC1 [Dalcetrapib (JTT-705, RO4607381)]
- Dose.FC.LYZ.NS ([1]; Dose 0.08 uM, ENR+CD, 6 days): 0.055 log 2 fold change
- Z.LYZ.NS [1, 4]: 0.475
- Dose.FC.LYZ.NS ([1]; Dose 0.40 uM, ENR+CD, 6 days): −0.037 log 2 fold change
- Z.LYZ.NS [1, 5]: −0.324
- Dose.FC.LYZ.NS ([1]; Dose 2.00 uM, ENR+CD, 6 days): −0.034 log 2 fold change
- Z.LYZ.NS [1, 6]: −0.296
- Dose.FC.LYZ.NS ([1]; Dose 10.00 uM, ENR+CD, 6 days): −0.074 log 2 fold change
- Z.LYZ.NS [1, 7]: −0.643
- Dose.FC.LYZ.S ([2]; Dose 0.08 uM, ENR+CD, 6 days): 0.049 log 2 fold change
- Dose.FC.LYZ.S ([2]; Dose 0.40 uM, ENR+CD, 6 days): 0.104 log 2 fold change
- Dose.FC.LYZ.S ([2]; Dose 2.00 uM, ENR+CD, 6 days): 0.098 log 2 fold change
- Dose.FC.LYZ.S ([2]; Dose 10.00 uM, ENR+CD, 6 days): −0.113 log 2 fold change
- Dose.FC.CTG ([3]; Dose 0.08 uM, ENR+CD, 6 days): 0.112 log 2 fold change
- Z.CTG [3, 4]: 0.268
- Dose.FC.CTG ([3]; Dose 0.40 uM, ENR+CD, 6 days): −0.006 log 2 fold change
- Z.CTG [3, 5]: −0.014
- Dose.FC.CTG ([3]; Dose 2.00 uM, ENR+CD, 6 days): 0.079 log 2 fold change
- Z.CTG [3, 6]: 0.188
- Dose.FC.CTG ([3]; Dose 10.00 uM, ENR+CD, 6 days): 0.136 log 2 fold change
- Z.CTG [3, 7]: 0.324

SMILES: CCN1CCN(c2ccc(Nc3cc(N(C)C(=O)Nc4c(Cl)c(OC)cc(OC)c4Cl)ncn3)cc2)CC1 [BGJ398 (NVP-BGJ398)]
- Dose.FC.LYZ.NS [1, 16]: −0.002 log 2 fold change
- Z.LYZ.NS [1, 17]: −0.017
- Dose.FC.LYZ.NS [1, 18]: −0.060 log 2 fold change
- Z.LYZ.NS [1, 19]: −0.520
- Dose.FC.LYZ.NS [1, 20]: −0.052 log 2 fold change
- Z.LYZ.NS [1, 21]: −0.450
- Dose.FC.LYZ.NS [1, 22]: −0.269 log 2 fold change
- Z.LYZ.NS [1, 23]: −2.345
- Dose.FC.LYZ.S [2, 16]: −0.036 log 2 fold change
- Dose.FC.LYZ.S [2, 18]: 0.002 log 2 fold change
- Dose.FC.LYZ.S [2, 20]: −0.062 log 2 fold change
- Dose.FC.LYZ.S [2, 22]: −0.350 log 2 fold change
- Dose.FC.CTG [3, 16]: −0.054 log 2 fold change
- Z.CTG [3, 17]: −0.128
- Dose.FC.CTG [3, 18]: 0.026 log 2 fold change
- Z.CTG [3, 19]: 0.063
- Dose.FC.CTG [3, 20]: −0.185 log 2 fold change
- Z.CTG [3, 21]: −0.442
- Dose.FC.CTG [3, 22]: −1.500 log 2 fold change
- Z.CTG [3, 23]: −3.583
